# Assays:
# humans = details: fructose intake levels greater than 17% of total Kcal; cited from earlier work
# [1] = test system: healthy nondiabetic adult subjects; assay: Subjective gastrointestinal tolerance questionnaire, 24-h period after the test material; type: in vivo, human; details: for Intensity of Cramping / Intensity of Distention / Intensity of Flatulence / Intensity of Nausea: 100-mm line scale score (0 Absent, 100 Severe); for Intensity of Cramping / Intensity of Distention / Intensity of Flatulence / Intensity of Nausea / Frequency of Cramping / Frequency of Distention / Frequency of Flatulence / Frequency of Nausea: Mean ± SEM, n=31; for Frequency of Cramping / Frequency of Distention / Frequency of Flatulence / Frequency of Nausea: 100-mm line scale score (0 Usual, 100 More than usual)
# From the text: (§1) The primary objective of this study was to determine the effects of the timing of fructose ingestion on the postprandial glycemic response of healthy nondiabetic adult subjects to instant mashed potatoes, a rapidly digested starch. A secondary objective was to evaluate the effects of an acute challenge of 50 g of carbohydrate from instant mashed potatoes ±10 g fructose on subjective gastrointestinal tolerance.
# Using a questionnaire, subjects were asked to report the frequency and intensity of the following symptoms: nausea, cramping, distention, and flatulence for the 24-h period immediately following consumption of the test material. Intensity and frequency was set to a 100-mm line scale (0 representing “Absent” and 100 “Severe” and 0 representing “Usual” and 100 “More than usual,” respectively). Subjects placed a single perpendicular slash mark across the 100 mm horizontal line to indicate their scores for each of these variables of frequency and intensity. A score of 5 or less was considered not physiologically meaningful.
# rats = details: fructose intake levels greater than 17% of total Kcal; cited from earlier work
# [2] = test system: healthy nondiabetic adult subjects; assay: 2-hour meal tolerance test (50 g carbohydrate from instant mashed potatoes ±10 g fructose), postprandial glycemic response; type: in vivo, human; details: for Incremental AUC / Incremental peak glucose / Time to peak: Mean ± SEM; for Glycemic index: incremental AUC for treatment/control (no supplemental fructose) × 100
# From the text: as §1
# The study followed a double-blind crossover design in which subjects participated in four 2-hour meal tolerance tests on separate occasions. Subjects were randomly assigned to one of 24 treatment sequences. After an overnight fast, subjects consumed 50 g carbohydrate from instant mashed potatoes with or without 10 g supplemental fructose. The effects of the timing of fructose ingestion were evaluated by having the subjects consume 10 g fructose 60, 30, or 0 min before the instant mashed potato meal. A control meal tolerance test was given where subjects received no fructose.
# To ensure that subjects had similar glycogen stores on the 4 test days, subjects were instructed to consume a high carbohydrate diet (minimum 150 g carbohydrate per day) for 3 days before each meal tolerance test and were also asked to avoid exercise 24 hours before the experiment. On the evening before each meal tolerance test, all subjects consumed a low-residue dinner consisting of one 8 fl oz (237 ml) can of chocolate Ensure Plus® (Ross Laboratories, Columbus, Ohio) with additional Honey Graham Crunch Ensure® Bars (Ross Laboratories, Columbus, Ohio) to provide one-third of each subject's individual daily caloric requirement as estimated by the Harris-Benedict equation multiplied by an activity factor of 1.3. Subjects were instructed to fast overnight, following their low-residue evening meal, during which they were only allowed to consume water and smoking was prohibited. On the morning of each meal tolerance test, body weight, body temperature, pulse rate and blood pressure were measured by standard procedures. A fasting finger-prick capillary blood sample was obtained and analyzed utilizing two methods of glucose determination. One sample was immediately analyzed for glucose with an Accu-Chek Blood Glucose Monitoring System (Roche Diagnostics, Indianapolis, Ind.). An additional sample was collected into a capillary tube containing EDTA for whole blood glucose analysis (within 30 min of collection) using a YSI analyzer (model YSI 2300 STAT PLUS, Yellow Springs Instruments, Yellow Springs, Ohio). This fasting sample was considered the −60 min time point. According to randomization, subjects then consumed 10 g fructose at −60 min, −30, or 0 min or no supplemental fructose (30 ml water at −60 min). The test meal (50 g carbohydrate from instant mashed potatoes) was given at time 0 and consumed within 10 min. Additional finger-prick capillary blood was obtained at −30, 0, 15, 30, 45, 60, 90 and 120 min postprandial. Subjects were allowed 8 fl oz water (240 ml) during each 2-hour test. Immediately following each trial, body temperature, pulse rate and blood pressure were measured. Subjects returned within 7 days for repeat analysis with the appropriate crossover treatment.
# The products tested were instant mashed potatoes (Hungry Jack Mashed Potatoes; Pillsbury Company) and purified crystalline fructose (Wild Oats Market grocery; Columbus, Ohio).
# The primary variable for this study was incremental peak plasma glucose response. Secondary variables included incremental area under the curve, time to peak glucose, glycemic index, and subjective gastrointestinal tolerance factors. Exploratory variables included absolute and incremental plasma glucose response at −30, 0, 15, 30, 45, 60, 90, and 120 min postprandial.
# A total of 31 healthy nondiabetic (fasting plasma glucose value less than 110 mg/dl; American Diabetes Association, 1997) volunteers (thirteen men and eighteen women) were recruited. […]
# [3] = 10 g fructose 60 or 30 min before the meal tolerance test vs fructose with the meal or no supplemental fructose, P<0.05
# [4] = Accu-Chek values, 10 g fructose at 0 min (with test meal), n=31
# [5] = Accu-Chek values, 10 g fructose at −30 min relative to test meal, n=31
# [6] = Accu-Chek values, 10 g fructose at −60 min relative to test meal, n=31
# [7] = YSI values (whole blood), 10 g fructose at 0 min (with test meal), n=28
# [8] = YSI values (whole blood), 10 g fructose at −30 min relative to test meal, n=25
# [9] = YSI values (whole blood), 10 g fructose at −60 min relative to test meal, n=26
structure (smiles),measurement,setting,value
O=C(CO)[C@@H](O)[C@H](O)[C@H](O)CO [fructose],effect on blood lipids,humans,cause hypertriacylglycerolemia and hypercholesterolemia
same,Intensity of Cramping,[1]; 10 g fructose at 0 min,3 ± 1.9
same,Intensity of Distention,[1]; 10 g fructose at 0 min,1 ± 0.4
same,Intensity of Flatulence,[1]; 10 g fructose at 0 min,1 ± 0.5
same,Intensity of Nausea,[1]; 10 g fructose at 0 min,0 ± 0.2
same,Intensity of Cramping,[1]; 10 g fructose at −30 min,2 ± 1.6
same,Intensity of Distention,[1]; 10 g fructose at −30 min,3 ± 1.5
same,Intensity of Flatulence,[1]; 10 g fructose at −30 min,5 ± 1.7
same,Intensity of Nausea,[1]; 10 g fructose at −30 min,1 ± 0.4
same,Intensity of Cramping,[1]; 10 g fructose at −60 min,1 ± 0.3
same,Intensity of Distention,[1]; 10 g fructose at −60 min,1 ± 1.0
same,Intensity of Flatulence,[1]; 10 g fructose at −60 min,3 ± 1.5
same,Intensity of Nausea,[1]; 10 g fructose at −60 min,1 ± 0.3
same,Frequency of Cramping,[1]; 10 g fructose at 0 min,7 ± 4.1
same,Frequency of Distention,[1]; 10 g fructose at 0 min,1 ± 0.6
same,Frequency of Flatulence,[1]; 10 g fructose at 0 min,3 ± 1.3
same,Frequency of Nausea,[1]; 10 g fructose at 0 min,1 ± 0.2
same,Frequency of Cramping,[1]; 10 g fructose at −30 min,1 ± 0.2
same,Frequency of Distention,[1]; 10 g fructose at −30 min,4 ± 1.9
same,Frequency of Flatulence,[1]; 10 g fructose at −30 min,7 ± 2.9
same,Frequency of Nausea,[1]; 10 g fructose at −30 min,1 ± 0.2
same,Frequency of Cramping,[1]; 10 g fructose at −60 min,4 ± 3.2
same,Frequency of Distention,[1]; 10 g fructose at −60 min,1 ± 0.3
same,Frequency of Flatulence,[1]; 10 g fructose at −60 min,3 ± 1.7
same,Frequency of Nausea,[1]; 10 g fructose at −60 min,1 ± 0.3
same,"gastrointestinal symptoms (intensity and frequency of nausea, cramping, distention and flatulence)",[1]; all treatments: 50 g carbohydrate from instant mashed potatoes with or without 10 g supplemental fructose,Minimal effects
same,effect on blood lipids,rats,cause hypertriacylglycerolemia and hypercholesterolemia
same,Peak incremental change from baseline for plasma glucose,[2]; [3],lower
same,incremental area under the curve for plasma glucose,[2]; [3],lower
same,incremental change from baseline in plasma glucose at the 0 min time point,"[2]; 10 g fructose at −30 min compared to the 0-min time fructose ingestion treatment, P<0.05",increased
same,incremental change from baseline in plasma glucose at the −30 min time point,"[2]; 10 g fructose at −60 min compared to the other treatments, P<0.05",increased
same,postprandial glycemic response,[2]; 10 g fructose given 30 or 60 min before the meal tolerance test,reduced the postprandial glycemic response
same,postprandial glycemic response,"[2]; 10 g supplemental fructose given with the meal glucose tolerance test, compared to the control",had no effect
same,Incremental AUC,[2]; [4],3059 ± 246 mg·min/dL
same,Incremental peak glucose,[2]; [4],65.7 ± 3.2 mg/dL
same,Time to peak,[2]; [4],38 ± 1.9 min
same,Glycemic index,"[2]; Accu-Chek values, 10 g fructose at 0 min, n=31",98.8 ± 6.2
same,Glycemic index,"[2]; Accu-Chek values, 10 g fructose at −30 min, n=31",80.2 ± 8.5
same,Incremental AUC,[2]; [5],2329 ± 210 mg·min/dL
same,Incremental peak glucose,[2]; [5],49.5 ± 2.5 mg/dL
same,Time to peak,[2]; [5],36 ± 2.0 min
same,Glycemic index,"[2]; Accu-Chek values, 10 g fructose at −60 min, n=31",84.1 ± 6.6
same,Incremental AUC,[2]; [6],2398 ± 142 mg·min/dL
same,Incremental peak glucose,[2]; [6],51.6 ± 2.2 mg/dL
same,Time to peak,[2]; [6],35 ± 1.3 min
same,Incremental AUC,[2]; [7],2592 ± 213 mg·min/dL
same,Incremental peak glucose,[2]; [7],56.7 ± 3.0 mg/dL
same,Time to peak,[2]; [7],37 ± 1.8 min
same,Incremental AUC,[2]; [8],1880 ± 189 mg·min/dL
same,Incremental peak glucose,[2]; [8],39.9 ± 2.6 mg/dL
same,Time to peak,[2]; [8],33 ± 1.5 min
same,Incremental AUC,[2]; [9],2094 ± 132 mg·min/dL
same,Incremental peak glucose,[2]; [9],44.4 ± 2.0 mg/dL
same,Time to peak,[2]; [9],33 ± 1.2 min
same,Glycemic index,"[2]; YSI values, 10 g fructose at 0 min, n=28",107.1 ± 11.1
same,Glycemic index,"[2]; YSI values, 10 g fructose at −30 min, n=25",82.5 ± 10.6
same,Glycemic index,"[2]; YSI values, 10 g fructose at −60 min, n=26",89.6 ± 7.5
same,Time to peak glucose,"[2]; between treatments (fructose at −60, −30, 0 min or none), P>0.05",did not differ
same,postprandial incremental change from baseline in plasma glucose at 90 and 120 min,"[2]; between treatments, P>0.05",did not differ
same,incremental change from baseline in plasma glucose at 15 min,"[2]; fructose at −30 min compared to the control and 0-min time fructose ingestion treatment, P<0.05",higher
same,"incremental change from baseline in plasma glucose over the 30, 45 and 60 min time points",[2]; fructose −60 or −30 min relative to the meal tolerance test,tended to be lower
